Reference: patent publication US10723699B2 (Hyundai Pharm Co., Ltd., priority 2015, dated 2020)

Tests used:
[1] = target: T1, CYP3A4 (Homo sapiens, UniProt P08684); assay: CYP inhibition assay (BD GENTEST kit); format: in vitro ADME; conditions: 10 μM
T1 construct: purchased BD GENTEST 459500
Source text: (§1) CYP enzymes play a major role in the metabolism of drugs. Depending on the inhibition activity of the CYP enzymes, the dose of the drugs and toxicity due to the co-administration of other drugs can be predicted. Therefore, we have measured the inhibitory activity for CYP3A4, CYP2C9, CYP1A2, CYP2D6 and CYP2C19 enzymes present in the body using the compounds of the present invention. Invitrogen P2862 kit was used for CYP2D6 inhibition assay, and BD GENTEST (459100, 459300, 459400, 459500) kits were used for CYP1A2, CYP2C9, CYP2C19 and CYP3A4 inhibition assay. In case of Invitrogen kit, the test materials were diluted in distilled water into 2.5× of the final test concentration.
(§2) In case of BD GENTEST kit, the test materials were diluted in acetonitrile into 50× of the final test concentration. NADPH-cofactor mixture containing cofactor, G6PDH and control protein was prepared in distilled water as per manufacturer's instruction. 4 μl of 50× test materials and 96 μl of NADPH-cofactor mixture were mixed in U-bottom 96-well plate, and the resulting mixture were pre-incubated at 37° C. for 10 minutes. Predetermined concentrations of enzyme/substrate mixture were prepared in distilled water using buffer (0.5M potassium phosphate, pH 7.4) and each of CYP450 enzyme/substrate mixture provided in the kit for the types of CYP450. To the pre-incubated plate, 100 μl of enzyme/substrate mixture was added, and then incubated at 37° C. for 15 minutes (CYP1A2), 30 minutes (CYP3A4 and CYP2C19) or 1.5 hours (CYP2C9). After completion of the reaction, the reactants were transferred to the white plates, and fluorescent values were measured using a micro-plate reader (Excitation and absorption wavelengths of CYP1A2 and CYP2C19 were 410 nm and 460 nm, respectively; and excitation and absorption wavelengths of CYP2C9 and CYP3A4 were 409 nm and 530 nm, respectively).
(§3) The measured values were converted into the inhibition percent of the test materials as compared to the value of the untreated control, and the results were summarized in Table 5.

[2] = target: T2, CYP1A2 (Homo sapiens, UniProt P05177); assay: CYP inhibition assay (BD GENTEST kit); format: in vitro ADME; conditions: 10 μM
T2 construct: purchased BD GENTEST 459100
T2 sequence (P05177 1-516): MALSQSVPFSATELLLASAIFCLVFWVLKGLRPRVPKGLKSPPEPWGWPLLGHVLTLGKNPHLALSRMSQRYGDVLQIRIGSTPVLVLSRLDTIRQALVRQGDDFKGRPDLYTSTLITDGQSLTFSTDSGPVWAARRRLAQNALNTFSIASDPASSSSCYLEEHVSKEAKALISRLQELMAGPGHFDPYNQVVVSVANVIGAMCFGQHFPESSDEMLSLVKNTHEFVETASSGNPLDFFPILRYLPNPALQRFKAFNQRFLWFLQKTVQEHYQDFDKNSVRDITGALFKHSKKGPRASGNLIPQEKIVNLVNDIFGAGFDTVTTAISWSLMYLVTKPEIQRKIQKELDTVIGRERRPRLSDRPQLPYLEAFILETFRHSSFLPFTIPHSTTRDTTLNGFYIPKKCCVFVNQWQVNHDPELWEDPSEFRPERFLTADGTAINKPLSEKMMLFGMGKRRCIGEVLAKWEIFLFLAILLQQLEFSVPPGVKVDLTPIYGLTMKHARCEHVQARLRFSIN
Source text: as §1, §2, §3

[3] = target: T3, CYP2C19 (Homo sapiens, UniProt P33261); assay: CYP inhibition assay (BD GENTEST kit); format: in vitro ADME; conditions: 10 μM
T3 construct: purchased BD GENTEST 459400
Source text: as §1, §2, §3

[4] = system: diet-induced obesity (DIO) C57BL/6J mice; assay: OGTT in diet-induced obesity (DIO) mice at the end of 4-week administration; format: in vivo; conditions: glucose 4 g/kg 30 minutes later
Method: To simultaneously evaluate both the weight-loss and hypoglycemic effects of the cyclohexene derivative according to the present invention, experiments were carried out, as follows.
Specifically, male C57BL/6J mice (approximately 4 weeks old) in a diet-induced obesity model were fed with a high-fat diet (Lab. Diet Co.) for approximately 12 weeks to induce high-fat diet-induced obesity (DIO). The mice undergoing the high-fat diet were randomly selected, and divided into groups (n=8) for respective administrations.
The weights of the DIO mice were measured twice a week during a period of administration of 4 weeks to record a change in the weights. At the end of the 4-week period of administration, a hypoglycemic effect was evaluated using an oral glucose tolerance test (OGTT), as follows.
Specifically, the compound (+)-(4-(4-((1-(5-ethylpyrimidin-2-yl)piperidin-4-yl)methoxy)phenyl)cyclohex-3-enyl)((R)-2-(hydroxymethyl)pyrrolidin-1-yl)methanone or (−)-(4-(4-((1-(5-ethylpyrimidin-2-yl)piperidin-4-yl)methoxy)phenyl)cyclohex-3-enyl)((R)-2-(hydroxymethyl)pyrrolidin-1-yl)methanone prepared in Example 290 or 291 was orally administered at a dose of 10 to 20 mg/kg. […] A blood glucose level was determined using an Accu-Chek Active Strip (Roche diagnostic Co.). […]

[5] = target: T4, CYP2D6 (Homo sapiens, UniProt P10635); assay: CYP inhibition assay (Invitrogen P2862 kit); format: in vitro ADME; conditions: 10 µM
T4 construct: purchased Invitrogen P2862
Source text: as §1
P450 BACULOSOMES® reagent and regeneration device (100×) provided by the Invitrogen kit were diluted in the Vivid® reaction buffer (2×) into the appropriate concentration for the type of CYP450. After mixing 80 μl of the 2.5× test material and 100 μl of the mixture of the diluted P450 BACULOSOMES® reagent in U-bottom 96-well plate, the resulting mixture was pre-incubated for 20 minutes. Vivid® CYP450 substrate and NADP+ (100×) were diluted in the Vivid® CYP450 reaction buffer (2×) into the appropriate concentration for the types of CYP450 and the substrates. After completion of the pre-incubation, 20/l of the substrate-NADP (nicotinamide adenine dinucleotide phosphate) mixture was added, and then incubated for 1 hour. After completion of the reaction, the reactants were transferred to the white plates, and fluorescence values were measured using a micro-plate reader (Excitation and absorption wavelengths of CYP2D6 were 400 nm and 502 nm, respectively).
as §3

T3 sequence (P33261 whole entry): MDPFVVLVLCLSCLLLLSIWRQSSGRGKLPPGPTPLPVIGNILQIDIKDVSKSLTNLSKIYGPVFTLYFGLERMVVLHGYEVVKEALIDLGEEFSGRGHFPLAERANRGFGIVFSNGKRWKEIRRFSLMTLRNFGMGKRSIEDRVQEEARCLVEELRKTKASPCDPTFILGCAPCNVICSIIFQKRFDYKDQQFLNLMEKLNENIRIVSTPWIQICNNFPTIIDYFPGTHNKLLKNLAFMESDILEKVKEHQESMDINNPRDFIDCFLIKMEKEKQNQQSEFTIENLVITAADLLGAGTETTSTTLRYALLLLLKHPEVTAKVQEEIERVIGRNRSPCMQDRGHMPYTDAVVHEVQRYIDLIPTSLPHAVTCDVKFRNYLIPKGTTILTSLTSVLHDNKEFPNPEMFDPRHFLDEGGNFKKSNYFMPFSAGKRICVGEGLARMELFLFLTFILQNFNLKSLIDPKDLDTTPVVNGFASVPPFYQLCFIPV
T1 sequence (P08684 whole entry): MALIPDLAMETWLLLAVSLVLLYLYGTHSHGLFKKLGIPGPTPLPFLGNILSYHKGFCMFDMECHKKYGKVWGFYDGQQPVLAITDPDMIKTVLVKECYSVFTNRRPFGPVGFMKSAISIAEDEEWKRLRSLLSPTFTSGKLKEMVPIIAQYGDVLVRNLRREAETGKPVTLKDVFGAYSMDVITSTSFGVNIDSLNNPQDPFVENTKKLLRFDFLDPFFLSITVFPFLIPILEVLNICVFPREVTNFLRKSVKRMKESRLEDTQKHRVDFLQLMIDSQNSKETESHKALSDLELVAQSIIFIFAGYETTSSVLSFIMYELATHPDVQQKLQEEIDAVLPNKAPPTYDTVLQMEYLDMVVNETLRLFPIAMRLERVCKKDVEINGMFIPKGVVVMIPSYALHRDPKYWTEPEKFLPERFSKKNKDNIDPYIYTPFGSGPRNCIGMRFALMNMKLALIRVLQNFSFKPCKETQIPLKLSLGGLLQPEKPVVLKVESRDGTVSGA
T4 sequence (P10635 whole entry): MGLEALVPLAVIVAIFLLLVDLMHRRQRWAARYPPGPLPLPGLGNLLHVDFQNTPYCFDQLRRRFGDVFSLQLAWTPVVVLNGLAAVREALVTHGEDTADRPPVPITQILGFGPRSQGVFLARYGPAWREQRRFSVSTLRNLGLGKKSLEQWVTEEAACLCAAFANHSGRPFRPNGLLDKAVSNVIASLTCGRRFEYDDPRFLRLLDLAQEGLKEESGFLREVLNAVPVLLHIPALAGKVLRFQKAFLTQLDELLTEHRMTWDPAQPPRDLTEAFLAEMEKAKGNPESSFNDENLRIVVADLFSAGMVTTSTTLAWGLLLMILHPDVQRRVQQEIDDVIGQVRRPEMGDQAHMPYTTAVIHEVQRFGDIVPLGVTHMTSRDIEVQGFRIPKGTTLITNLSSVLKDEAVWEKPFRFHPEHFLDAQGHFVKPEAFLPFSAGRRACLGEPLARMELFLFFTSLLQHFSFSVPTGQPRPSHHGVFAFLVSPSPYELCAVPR

CYP inhibition (% at 10 μM) 3A4 [1]: 36.36%
CYP inhibition (% at 10 μM) 1A2 [2]: 0%
CYP inhibition (% at 10 μM) 2C19 [3]: 54.06%
CYP inhibition (% at 10 μM) 2D6 [5]: 2.49%
Compound: CCc1cnc(N2CCC(COc3ccc(C4=CCC(C(=O)N5CCC[C@@H]5CO)CC4)cc3)CC2)nc1 (single isomer, unassigned; (-)) [Example 291]
% AUC (hypoglycemic level) ([4]; 10 mg/kg oral): 16.2 % AUC
% AUC (hypoglycemic level) ([4]; 20 mg/kg oral): 17.6 % AUC
